From a melting point compilation (Tetko et al.; mined from patent text by program, amines drawn as free bases though some values may be those of a salt) come the findings set out here.

Each structure is given as a SMILES string. Bounds are passed on as bounds.

Usually melting point stands for the temperature of the solid-liquid transition. Molecule `Cc1ccccc1C(=O)Nc1ccc(C(=O)O)cn1` gave a melting point of 235 to 238 °C.

The molecule `CCCc1c(S)ccc2c(=O)cc(C(=O)OC)oc12` yielded a melting point of 98 to 99 °C.

For the molecule `CSC[C@H]1NC(=O)[C@@H](Cc2ccccc2)NC1=O`, the melting point lay within 246 to 247 °C.

Take `CC1(C)C(=O)Nc2cc3[nH]c(C(F)(F)F)nc3cc21`: the melting point is 175 to 177 °C.

Regarding `COCCCNc1nc(N)c(Cl)c(Cl)n1`, the melting point came to 114 °C.

`CCC1c2cccn2-c2ccc(Cl)cc2N1S(=O)(=O)c1ccc(O)c(C)c1` (stereo not given) showed a melting point of 170 to 172 °C.

In turn, `COc1cccc(OC)c1C(=O)Nc1nnc(-c2ccccc2Cl)s1` gave a melting point of 235 to 237 °C.

Regarding `CS(=O)(=O)c1ccc(C2=C(c3cccc(F)c3F)CCC2)cc1`, the melting point was in the range of 151 to 152 °C.

`CCOc1cc(C(=CC#N)c2ccc(OC)c(-n3cccc3)c2)ccc1OC`: the melting point was 109 to 111 °C.

`CCOP(=O)(OCC)c1c(C)c2c(c(C)c1-c1c(OCc3ccccc3)ccc3ccccc13)CN(S(=O)(=O)c1ccc(C)cc1)C2` registered a melting point of 69.8 to 71.7 °C.

In the case of `N#Cc1ccccc1-c1ccc(CO)cn1`, the melting point fell in the range of 152 to 153 °C.

`N#Cc1c(-c2oc3ccccc3c2Cl)[nH]c(Cl)c1Cl`: the melting point was in the range of 258 to 260 °C.

The molecule `CC1(C)CC(=O)OC1c1ccc(Cl)c([N+](=O)[O-])c1` (stereo not given) showed a melting point of 134 to 136 °C.

As for `CCOC(=O)C=C(C)c1ccc(-c2ccc(F)cc2F)cc1`, the melting point fell in the range of 54 to 56 °C.

For `Cc1ccc(CC2CCN(C(=O)c3cc(=O)c4cc(O)ccc4[nH]3)CC2)cc1`, the melting point is 152 °C.

`CC(=O)n1nc(C)c(Oc2cc(Cl)cc(C#N)c2)c1C` yielded a melting point below 60 °C.

For the molecule `CCc1c(COC(C)=O)nc(-c2ccc(OC)c(OC)c2)c2cc(OC)c(OC)cc12`, the melting point was 129 to 131 °C.

With `C=CCN(C)c1nc(-c2ccc(OC)cc2)nc2sc(C#N)c(C)c12`, the melting point was in the range of 126 to 128 °C.

Molecule `COc1cc(OC)nc(NS(=O)(=O)C(C(N)=O)C(C)C)n1` (stereo not given) showed a melting point of 147 to 150 °C.

As to `CC(O)CNc1c(Br)cnc2ccccc12` (stereo not given), the melting point lay within 82 to 83 °C.

`CCN(CC)CC1CN=C(NC(=O)Nc2ccccc2)O1` (stereo not given) came in with a melting point of 148 °C.

`COc1ccc(CN2CCN(CC(=O)N3CC=C(c4cccc(C(F)(F)F)c4)n4ncc(C#N)c43)CC2)cc1` had a melting point of 151 to 153 °C.

In the case of `CCCCOC(=O)COc1ccc(C(=O)Nc2ccccc2Sc2cccc(C)c2-c2nnn[nH]2)cc1`, the melting point was 150 to 151 °C.

As to `CCc1nn(C2CCC2)c2cc(C(=O)O)ccc12`, the melting point was in the range of 148 to 150 °C.

On to `Cc1ccc(C(O)(c2ccc3c(c2)c(-c2cccc(Cl)c2)nc2nnnn23)c2cncn2C)cc1` (stereo not given), for which the melting point turned out to be 165 °C.

Molecule `C=CCNC(=O)N=C(O)c1cc(C(=O)O)ccc1C(=O)O` yielded a melting point of 230 to 232 °C.

In turn, `CCOc1c(C(=O)NC2CN3CCC2CC3)cc(Cl)c2c1CCCN2` (stereo not given) displayed a melting point of 160 °C.

On to `CS(=O)(=O)c1ccc(-n2nc(CCCN3C(=O)c4ccccc4C3=O)cc2-c2ccccc2)cc1`, for which the melting point fell in the range of 62.4 to 72.2 °C.

On to `Cn1c(C(F)(F)F)n[nH]c1=O`, for which the melting point amounted to 64 °C.

As for `CC(C)c1c(C(=O)Nc2ccccc2)c(-c2ccccc2)c(-c2ccc(F)cc2)n1CCCC(O)C(O)CC(=O)N(c1ccccc1)c1ccccc1` (stereo not given), the melting point is 228 to 233 °C.

Molecule `CC(CCN1CCCCC1)CC(=O)NNC(=O)N1Cc2ccccc2Oc2ccc(Cl)cc21` (stereo not given) had a melting point of 108 to 111 °C.

For the molecule `C=CC(c1ccc(F)cc1)c1c(C)c(NC=O)c(C)c(C)c1O` (stereo not given), the melting point was 168 to 170 °C.

`CCOC(=O)COc1c(C(=O)OC)cc(Cl)cc1[N+](=O)[O-]` displayed a melting point of 68 to 70 °C.

`COc1ccc(F)cc1Oc1c(Cl)ncnc1NS(=O)(=O)c1ccc(C(F)(F)F)cc1` gave a melting point of 185 to 186 °C.

In turn, `CN(C)C1(c2ccccc2)CCC2(OCCc3c2[nH]c2ccccc32)C(CCO)C1` (stereo not given) returned a melting point of 311 to 314 °C.

For `CCCCOc1cccc(C[C@H](NC(C)=O)[C@H](O)CNCc2cccc(CC)c2)c1`, the melting point fell in the range of 112 to 114 °C.

Regarding `COc1ccc2onc(CC(N)=NO)c2c1`, the melting point lay in the range of 180 to 183 °C.

For the molecule `O=c1oc2cccc(O)c2c(OCCN2CCOCC2)c1-c1ccccc1`, the melting point amounted to 206 °C.

As to `Cc1ccccc1NNC(N)=S`, the melting point fell in the range of 158 to 160 °C.

The molecule `O=C1N(Cc2cnccn2)c2ccccc2C12COc1cc3c(cc12)CCO3` (stereo not given) had a melting point of 143 to 144 °C.

In the case of `CCOC(=O)/C(=C\Nc1ccccc1OC)c1ccc(OC)cc1`, the melting point lay within 58 to 59 °C.

`O=C(O)C1CCCc2c1c1ccccc1n2Cc1ccccc1` (stereo not given) registered a melting point of 212 to 215 °C.

`O=C(COc1cc(-c2ccccc2)on1)NCCO[N+](=O)[O-]` showed a melting point of 113 to 114 °C.

On to `CC(=O)NCC1CC(c2ccc(N3CCCC3)c(F)c2)=NO1` (stereo not given), for which the melting point fell in the range of 141 to 143 °C.

`CC(=O)SCC(Cc1ccccc1)C(=O)Nc1cccc(C(=O)O)c1C` (stereo not given) showed a melting point of 162 to 163 °C.

In turn, `N=C(Nc1cccc([N+](=O)[O-])c1)N1CCCC1` showed a melting point of 117 to 118 °C.

`COC(=O)CCCCc1cc2cc(C(F)(F)F)ccc2n1S(=O)(=O)c1cccc(C(C)(C)C)c1` came in with a melting point of 77 °C.

In the case of `O=C(CC(=O)c1ccc(O)cc1O)c1cc(OCc2ccccc2)cc(OCc2ccccc2)c1`, the melting point is 179 to 181 °C.

The molecule `CCCCc1cc(=O)c(C(=O)OCC)cn1Cc1ccc(-c2ccccc2-c2nnn[nH]2)cc1` displayed a melting point of 119 to 120 °C.

Molecule `O=C1Nc2ccccc2N2CCN(Cc3ccncc3)CC12` (stereo not given) returned a melting point of 253 to 255 °C.

`Nc1ccc(CN2CCN(c3ccc(F)cc3)CC2)cc1` had a melting point of 130 to 132 °C.

As for `CN1CCN(c2ccc3cn[nH]c3n2)CC1`, the melting point was 196 to 197 °C.

Consider `NCCCCCC(N)=O`, for which the melting point fell in the range of 49 to 50 °C.

`COc1cc(C2CCN(C[C@H](Oc3ncc4ccc(-c5ccccc5N(C)S(C)(=O)=O)n4n3)C(F)(F)F)CC2)ccc1N` registered a melting point of 85 to 96 °C.

With `CC(=O)Nc1ccccc1Nc1ccc(C(=O)c2ccccc2)cc1`, the melting point lay in the range of 155 to 157 °C.

In turn, `Nc1ccc(C(=O)NCC(=O)O)c(F)c1` displayed a melting point of 190 to 194 °C.

In turn, `COC(=O)c1cc(C(=O)c2c(C)c(OC)c3c(OCc4ccccc4)cccn23)ccc1NC(=O)C(F)(F)F` showed a melting point of 214 °C.

`COC(=O)Cc1ccc(OC[C@@H](C)NC[C@H](O)c2ccccc2)cc1` returned a melting point of 69 to 70 °C.

The molecule `O=C(O)CCC/C=C\[C@@H]1C[C@@H](NS(=O)(=O)c2ccc(Cl)cc2)CN1S(=O)(=O)c1ccc(Cl)cc1` had a melting point of 111 to 113 °C.

In turn, `CCCCCCCCCCCCCCOc1ccc(COC(=O)NCc2ccccn2)cc1` returned a melting point of 67 to 68 °C.

As for `COc1ccc(OC)c2c1C(=O)OC2=O`, the melting point is 265 to 268 °C.

Take `C/C(=C\C=C\Cn1oc(=O)[nH]c1=O)c1cccc(OCc2nc(-c3ccccc3)oc2C)c1`: the melting point is 117 to 118 °C.

`CCOC(=O)Cc1nn(Cc2ccc(Cl)c(Cl)c2)c(=O)c2c(C)cccc12` registered a melting point of 134 to 137 °C.

Turning to `COCc1c(C(C)C)nc(-c2ccc(F)cc2)c(C=O)c1C(C)C`, the melting point stood at 77 °C.

In the case of `CCCc1sc2nc(CCl)c(C(=O)OCC)c(-c3ccc(Cl)cc3)c2c1C`, the melting point is 95 to 96 °C.

In the case of `CC(C)C(NS(=O)(=O)c1ccc2c3c(oc2c1)CCCC3)C(=O)O` (stereo not given), the melting point is 167 to 169 °C.

`COc1cccc(S(=O)(=O)Nc2nccnc2OC)c1Cl` registered a melting point of 151 to 152 °C.

With `CSc1ccc(C(=O)CBr)cc1F`, the melting point was 70 to 71 °C.

`COC(=O)c1cc2ccc(C(=O)NCCN3CCOCC3)cc2[nH]1` registered a melting point of 226 to 228 °C.

For `O=C1CCN(C(=O)c2ccc(Cl)cc2Cl)c2c(Cl)cccc21`, the melting point was 157 to 159 °C.

In turn, `COC(=O)c1ccc(OC)c(NC(=NCl)c2ccc(Cl)cc2Cl)c1` yielded a melting point of 120 °C.

As for `COC(=O)c1nc(S)n(C(c2ccccc2)c2ccccc2)c1C(=O)OC`, the melting point came out at 154 °C.

For the molecule `CN(C)C=C(C(=O)C(C)(C)C)n1ccnc1`, the melting point was 45 to 50 °C.

In turn, `CCOC(=O)c1c(CCBr)nc2cc(OC)c(OC)cc2c1-c1ccc(OC)c(OC)c1` returned a melting point of 132 to 133 °C.

Take `N#Cc1c(Cl)c(Cl)n(O)c1-c1ccc(Cl)cc1`: the melting point came out at 156 °C.

For `Cc1c(C)c(C=O)c2ncccc2c1C`, the melting point is 162 °C.

Molecule `COC(=O)c1sccc1Nc1ccc(F)cc1[N+](=O)[O-]` came in with a melting point of 172 to 175 °C.

The molecule `O=C1c2ccccc2-c2c1c(Cl)nc1cc(O)ccc21` showed a melting point above 300 °C.

For the molecule `O=C(c1ccccc1)c1ncc2n1CCC2C(=O)O` (stereo not given), the melting point was 232 to 233 °C.

The molecule `O=C(O)CCC(NC(=O)c1ccccc1)C(=O)NC(c1ccccc1)c1ccccc1` (stereo not given) came in with a melting point of 128 °C.

In the case of `C(=C\c1nc2ccccc2n1-c1ccccn1)/c1ccsc1`, the melting point amounted to 136 °C.

Molecule `Cc1oc2ccccc2c1C(=O)c1ccc(Cl)c(S(N)(=O)=O)c1` came in with a melting point of 183 °C.

As to `N#Cc1ccc(N(Cc2ccc(OCc3ccccc3)cc2)n2cncn2)cc1-c1ccccc1`, the melting point fell in the range of 112 to 113 °C.

With `On1nnc2ccc(C3CCCc4cncn43)cc21` (stereo not given), the melting point stood at 279 °C.

In turn, `CC(C)(C)NCCCOc1ccccc1C(=O)c1cccc2[nH]ccc12` came in with a melting point of 130 °C.

Consider `CC1CC(=O)NN=C1c1ccc2c(c1)NC(=O)C(C)O2` (stereo not given), for which the melting point was 271 to 272 °C.

In the case of `CN(C)C(=O)Cc1cccc(C(=O)c2ccccc2)c1N`, the melting point is 123 to 124 °C.

Molecule `Cc1[nH]c(=O)n(C2CCCCC2)c1-c1ccc(OCc2ccccc2)cc1` showed a melting point of 262 °C.

With `CC(C(=O)OC(C)(C)C)C(C)(O)c1ccc(Cl)nc1NC(=O)C(C)(C)C` (stereo not given), the melting point was in the range of 146 to 148 °C.

As to `CSCc1sccc1S(=O)(=O)N(C)c1cccc2cc(-c3nccs3)[nH]c12`, the melting point turned out to be 213 °C.
